## NC(=O)c1cnccn1
In 1,4-dioxane, 293.15 K
  solubility (mole fraction): 0.0072
In 1,4-dioxane, 303.15 K
  solubility (mole fraction): 0.0107
In 1,4-dioxane, 313.15 K
  solubility (mole fraction): 0.0138
In 1,4-dioxane, 323.15 K
  solubility (mole fraction): 0.0202
In 1,4-dioxane, 333.15 K
  solubility (mole fraction): 0.0285
In acetone, 283.15 K
  solubility (mole fraction): 0.00244
In acetone, 293.15 K
  solubility (mole fraction): 0.00386
In acetone, 303.15 K
  solubility (mole fraction): 0.00583
In acetone, 313.15 K
  solubility (mole fraction): 0.00768
In acetone, 323.15 K
  solubility (mole fraction): 0.0116
In methanol, 283.15 K
  solubility (mole fraction): 0.00268
In methanol, 293.15 K
  solubility (mole fraction): 0.00398
In methanol, 303.15 K
  solubility (mole fraction): 0.00586
In methanol, 313.15 K
  solubility (mole fraction): 0.0086
In methanol, 323.15 K
  solubility (mole fraction): 0.0122

Source: BigSolDB 2.1
